In ChEMBL document CHEMBL1201862, “PubChem BioAssay data set” (2004):
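In this assay, cells in 96-well plates receive the compound at five concentrations for 48 hours. Endpoints are linearly interpolated between the surrounding concentrations. The concentration for 50% growth inhibition is given as GI50.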 The source made the active and inactive calls. Rule as the data show it: active = GI50 up to about 1.1 µM and inactive = higher.

Tests used:
Test in all cases: inhibition of tumour cell growth, NCI panel, 48 h
KM12 = tested on: KM12
SK-OV-3 = tested on: SK-OV-3
COLO 205 = tested on: COLO 205
HCT-116 = tested on: HCT-116
ACHN = tested on: ACHN
SNB-19 = tested on: SNB-19
OVCAR-8 = tested on: OVCAR-8
OVCAR-5 = tested on: OVCAR-5
CCRF-CEM = tested on: CCRF-CEM
UACC-62 = tested on: UACC-62
SK-MEL-28 = tested on: SK-MEL-28
SF-539 = tested on: SF-539
TK-10 = tested on: TK-10
HOP-92 = tested on: HOP-92
SW-620 = tested on: SW-620
UACC-257 = tested on: UACC-257

Measured: GI50

O=C(NO)C12C3C4C1C1C2C3C41C(=O)NO (stereo unspecified)
inactive: KM12 > 100 µM | SK-OV-3 > 100 µM | COLO 205 > 100 µM | HCT-116 > 100 µM | ACHN > 100 µM | SNB-19 > 100 µM | OVCAR-8 > 100 µM | OVCAR-5 > 100 µM | CCRF-CEM > 100 µM | UACC-62 > 100 µM | SK-MEL-28 > 100 µM | SF-539 > 100 µM | TK-10 > 100 µM

Cc1cc(Br)cc(C)c1NC(=O)C(=O)C(C(=O)c1ccncc1)C1OC(=O)c2ccccc21 (stereo unspecified)
inactive: KM12 > 100 µM | SK-OV-3 > 100 µM | COLO 205 > 100 µM | HCT-116 > 100 µM | HOP-92 > 100 µM | ACHN > 100 µM | SNB-19 > 100 µM | OVCAR-8 > 100 µM | OVCAR-5 > 100 µM | CCRF-CEM > 100 µM | UACC-62 > 100 µM | SW-620 > 100 µM | TK-10 > 100 µM | UACC-257 > 100 µM

CCCCCCCCCC(=O)NC(Cc1ccc(O)cc1)C(=O)NCCCNCCCCNCCCNC(=O)[C@@H](N)CCCN=C(N)N (stereo partly specified)
inactive: KM12 20.9 µM | SK-OV-3 36.6 µM | COLO 205 13.8 µM | HCT-116 > 100 µM | ACHN 18.9 µM | SNB-19 70.1 µM | OVCAR-8 33.6 µM | CCRF-CEM 84.9 µM | SW-620 > 100 µM | SK-MEL-28 19.2 µM | SF-539 11 µM | TK-10 46.9 µM | UACC-257 44.5 µM

NC(CSSCC(N)Cc1ccccc1)Cc1ccccc1 (stereo unspecified)
inactive: KM12 30.2 µM | SK-OV-3 85.7 µM | COLO 205 32.7 µM | HCT-116 35.2 µM | ACHN 76.4 µM | SNB-19 > 100 µM | OVCAR-8 51.3 µM | OVCAR-5 44.3 µM | CCRF-CEM 32.9 µM | UACC-62 23.1 µM | SW-620 31.6 µM | SK-MEL-28 43.4 µM | TK-10 > 100 µM | UACC-257 47.8 µM

N#CC1CCCCOCCOCCOCCOCCOCCCCCC1=O (stereo unspecified)
inactive: KM12 > 100 µM | SK-OV-3 > 100 µM | COLO 205 > 100 µM | HCT-116 > 100 µM | ACHN > 100 µM | SNB-19 > 100 µM | OVCAR-8 > 100 µM | OVCAR-5 > 100 µM | CCRF-CEM > 100 µM | UACC-62 > 100 µM | SW-620 > 100 µM | SK-MEL-28 > 100 µM | TK-10 > 100 µM | UACC-257 > 100 µM

COC(=O)/C(C#N)=C1\CCC(Nc2cccc(C(F)(F)F)c2)N1C (stereo unspecified)
inactive: KM12 59.6 µM | SK-OV-3 84.3 µM | HCT-116 > 100 µM | ACHN 61.8 µM | SNB-19 > 100 µM | OVCAR-8 > 100 µM | OVCAR-5 > 100 µM | CCRF-CEM > 100 µM | UACC-62 61 µM | SW-620 > 100 µM | SK-MEL-28 > 100 µM | SF-539 > 100 µM | TK-10 > 100 µM | UACC-257 > 100 µM

COc1ccc(NC(=O)CC/C(CC(=O)c2ccco2)=N/NC(=O)C(N)=O)cc1
inactive: KM12 > 100 µM | SK-OV-3 > 100 µM | COLO 205 > 100 µM | ACHN > 100 µM | SNB-19 56.8 µM | OVCAR-8 > 100 µM | OVCAR-5 > 100 µM | CCRF-CEM 63.5 µM | UACC-62 > 100 µM | SW-620 > 100 µM | SK-MEL-28 91.2 µM | SF-539 > 100 µM | TK-10 > 100 µM | UACC-257 54.5 µM
